Reference: ChEMBL document CHEMBL5137082, “Discovery of a Novel Vascular Disrupting Agent Inhibiting Tubulin Polymerization and HDACs with Potent Antitumor Effects” (J Med Chem, 2022)
The source made the active and inactive calls. The rule behind the calls is not given here.

Legend:
HepG2 [1] = assay: Induction of morphological changes in human HepG2 cells assessed as chromatin aggregation at 7.5 to 30 nM after 48 hrs by Hoechst 33258 staining based fluorescence microscopic analysis; format: functional, cell-based; conditions: dose 7.5-30 nM
HUVEC = assay: Antimigratory activity against HUVEC cells assessed as suppression of migration measured after 24 hrs by Wound healing assay; format: functional, cell-based; conditions: Homo sapiens, dose 7.5-30 nM, DDE = dose-dependent effect
HepG2 [2] = assay: Induction of morphological changes in human HepG2 cells assessed as nuclear fragmentation at 7.5 to 30 nM after 48 hrs by Hoechst 33258 staining based fluorescence microscopic analysis; format: functional, cell-based; conditions: dose 7.5-30 nM
HepG2 [3] = assay: Induction of cell cycle arrest in human HepG2 cells assessed as accumulation G1 phase at 7.5 nM incubated for 48 hrs by propidium iodide staining based flow cytometry analysis (reference value: 59.32 +/- 0.77%); format: functional
[4] = Metabolic stability in mouse plasma assessed as compound remaining at 40 uM measured after 0.5 hrs by LC-MS/MS analysis (reference value: 100%); format: ADME, cell-free
Histone deacetylase 3 = Histone deacetylase 3 (Homo sapiens, UniProt O15379); assay: Inhibition of HDAC3 in human HepG2 cells assessed as increase in level of acetyl histone H3substrate incubated for 24 hrs by chemiluminescence based Western blotting analysis; format: cell-based; conditions: dose 0.03-0.3 µM
Histone deacetylase 3, sequence (O15379 whole entry): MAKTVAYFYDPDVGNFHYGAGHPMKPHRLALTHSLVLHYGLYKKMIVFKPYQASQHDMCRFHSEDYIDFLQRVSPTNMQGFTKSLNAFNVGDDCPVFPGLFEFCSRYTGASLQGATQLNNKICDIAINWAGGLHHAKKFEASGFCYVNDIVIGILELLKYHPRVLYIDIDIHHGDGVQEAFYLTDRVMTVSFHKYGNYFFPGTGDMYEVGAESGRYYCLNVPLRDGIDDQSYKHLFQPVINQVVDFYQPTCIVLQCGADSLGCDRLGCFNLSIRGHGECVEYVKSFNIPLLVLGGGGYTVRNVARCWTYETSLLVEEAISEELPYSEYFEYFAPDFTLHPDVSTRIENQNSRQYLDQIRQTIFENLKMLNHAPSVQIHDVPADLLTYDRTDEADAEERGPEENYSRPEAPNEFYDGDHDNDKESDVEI

H22 [5] = assay: Antitumor activity against mouse H22 cells allografted in ICR mouse assessed as inhibition of tumor growth at 20 mg/kg, iv administered qd for 21 days measured after 12 days; format: functional, organism-based; conditions: time 21.0 day
HCT-116 = assay: Antiproliferative activity against human HCT-116 cells assessed as inhibition of cell growth measured after 72 hrs by MTT assay; format: functional, cell-based; conditions: HCT-116, 72 h
HepG2 [6] = assay: Induction of cell cycle arrest in human HepG2 cells assessed as accumulation G2 phase at 30 nM incubated for 48 hrs by propidium iodide staining based flow cytometry analysis (reference value: 23.55 +/- 0.29%); format: functional
HepG2 [7] = assay: Induction of apoptosis in human HepG2 cells assessed as viable cells at 30 nM incubated for 48 hrs by Annexin-V/PI-staining based flow cytometry (reference value: 91.44 +/- 0.74%); format: functional; conditions: read-out: Activity
[8] = Metabolic stability in mouse plasma assessed as compound remaining at 40 uM measured after 2 hrs by LC-MS/MS analysis (reference value: 100%); format: ADME, cell-free
Histone deacetylase 2 [9] = molecular target: T1, Histone deacetylase 2 (Homo sapiens, UniProt Q92769); assay: Inhibition of HDAC2 in human HepG2 cells assessed as increase in level of acetyl histone H3substrate incubated for 24 hrs by chemiluminescence based Western blotting analysis; format: cell-based; conditions: dose 0.03-0.3 µM
T1 sequence (Q92769 whole entry): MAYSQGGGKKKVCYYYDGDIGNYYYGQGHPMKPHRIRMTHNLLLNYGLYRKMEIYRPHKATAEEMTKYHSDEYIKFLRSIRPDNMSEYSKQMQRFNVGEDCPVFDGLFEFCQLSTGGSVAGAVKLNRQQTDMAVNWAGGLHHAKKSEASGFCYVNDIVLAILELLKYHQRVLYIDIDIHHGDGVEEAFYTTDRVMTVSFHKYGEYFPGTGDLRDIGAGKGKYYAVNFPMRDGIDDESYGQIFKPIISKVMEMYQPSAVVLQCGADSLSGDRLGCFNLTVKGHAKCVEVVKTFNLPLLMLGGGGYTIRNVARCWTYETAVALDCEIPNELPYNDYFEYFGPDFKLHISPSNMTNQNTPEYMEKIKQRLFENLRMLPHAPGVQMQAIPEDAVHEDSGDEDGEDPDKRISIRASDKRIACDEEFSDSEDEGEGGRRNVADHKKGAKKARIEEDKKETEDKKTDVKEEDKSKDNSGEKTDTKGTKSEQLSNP

HepG2 [10] = assay: Induction of G2/M phase cell cycle arrest in human HepG2 cells assessed as decrease in cyclin B1 protein expression at 7.5 to 30 nM measured after 24 hrs by western blot analysis; format: functional, cell-based; conditions: dose 7.5-30 nM
PC-3 [11] = assay: Induction of apoptosis in human PC-3 cells assessed as mitochondrial membrane potential loss by measuring increase in green fluorescence at 7.5 nM incubated for 48 hrs by JC1 staining based flow cytometry analysis (reference value: 6.50 +/- 0.17%); format: functional
Tubulin (Homo sapiens) = Tubulin (Homo sapiens) (UniProt P68371+Q9H4B7+P0DPH7+P68366+Q13509+Q71U36+P04350+Q3ZCM7+P07437+P68363+Q9BQE3+Q6PEY2+Q13885+Q9BVA1+Q9BUF5); assay: Inhibition of [3H]Colchicine binding to tubulin (unknown origin) at 5 uM measured after 2 hrs by scintillation counting method relative to control; format: protein-complex assay
H22 [12] = assay: Antitumor activity against mouse H22 cells allografted in ICR mouse assessed as reduction in tumor volume growth rate at 20 mg/kg, iv administered qd for 21 days measured after 12 days; format: functional, organism-based; conditions: time 21.0 day
HepG2 [13] = assay: Induction of cell cycle arrest in human HepG2 cells assessed as accumulation G1 phase at 30 nM incubated for 48 hrs by propidium iodide staining based flow cytometry analysis (reference value: 59.32 +/- 0.77%); format: functional
[14] = Toxicity in ICR mouse allografted with mouse H22 cells assessed as pathological changes in kidney at 20 mg/kg, iv administered qd measured after 21 days by H and E staining based analysis; format: organism-based; conditions: in vivo, 504 h, time 21 day
HepG2 [15] = assay: Induction of apoptosis in human HepG2 cells assessed as necrotic cells at 7.5 nM incubated for 48 hrs by Annexin-V/PI-staining based flow cytometry (reference value: 1.43 +/- 0.26%); format: functional
HepG2 [16] = assay: Induction of apoptosis in human HepG2 cells assessed as downregulation of Bcl-2 protein expression measured after 24 hrs by Western blot analysis; format: functional, cell-based; conditions: dose 7.5-30 nM, DDE = dose-dependent effect
HepG2 [17] = assay: Induction of cell cycle arrest in human HepG2 cells assessed as accumulation S phase at 30 nM incubated for 48 hrs by propidium iodide staining based flow cytometry analysis (reference value: 17.14 +/- 0.34%); format: functional
[18] = Toxicity in ICR mouse allografted with mouse H22 cells assessed as pathological changes in heart at 20 mg/kg, iv administered qd measured after 21 days by H and E staining based analysis; format: organism-based; conditions: in vivo, 504 h, time 21 day
HepG2 [19] = assay: Induction of apoptosis in human HepG2 cells assessed as early apoptotic cells at 30 nM incubated for 48 hrs by Annexin-V/PI-staining based flow cytometry (reference value: 4.61 +/- 0.46%); format: functional
[20] = Antiproliferative activity against HUVEC cells assessed as inhibition of cell growth measured after 24 hrs by MTT assay; format: toxicity, cell-based; conditions: human
Histone deacetylase 1 = Histone deacetylase 1 (Homo sapiens, UniProt Q13547); assay: Inhibition of HDAC1 in human HepG2 cells assessed as increase in level of acetyl histone H3substrate incubated for 24 hrs by chemiluminescence based Western blotting analysis; format: cell-based; conditions: dose 0.03-0.3 µM
Histone deacetylase 1, sequence (Q13547 whole entry): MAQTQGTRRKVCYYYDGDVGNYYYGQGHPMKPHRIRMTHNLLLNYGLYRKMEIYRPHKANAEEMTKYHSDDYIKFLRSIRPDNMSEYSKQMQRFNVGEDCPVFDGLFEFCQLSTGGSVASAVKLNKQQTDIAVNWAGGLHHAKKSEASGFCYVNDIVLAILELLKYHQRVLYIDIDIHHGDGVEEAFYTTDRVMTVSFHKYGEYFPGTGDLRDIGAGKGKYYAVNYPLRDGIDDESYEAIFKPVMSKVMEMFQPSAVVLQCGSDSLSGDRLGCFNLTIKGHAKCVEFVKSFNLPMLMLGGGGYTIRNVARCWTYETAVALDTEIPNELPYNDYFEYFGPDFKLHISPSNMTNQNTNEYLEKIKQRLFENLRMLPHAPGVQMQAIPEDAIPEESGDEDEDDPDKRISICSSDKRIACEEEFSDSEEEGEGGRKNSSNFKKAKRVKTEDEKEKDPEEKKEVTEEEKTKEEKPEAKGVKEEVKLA

MDA-MB-231 = assay: Antiproliferative activity against human MDA-MB-231 cells assessed as inhibition of cell growth measured after 72 hrs by MTT assay; format: functional, cell-based; conditions: MDA-MB-231, 72 h
Histone deacetylase 2 [21] = molecular target: T1, Histone deacetylase 2; assay: Inhibition of HDAC2 in human HeLa cells using BOC-K(Ac)-AMC as substrate measured after 30 mins by fluorescence based microtiter plate reader assay; format: cell-based
HepG2 [22] = assay: Induction of apoptosis in human HepG2 cells assessed as upregulation of Bax protein expression measured after 24 hrs by Western blot analysis; format: functional, cell-based; conditions: dose 7.5-30 nM, DDE = dose-dependent effect
HepG2 [23] = assay: Induction of apoptosis in human HepG2 cells assessed as late apoptotic cells at 30 nM incubated for 48 hrs by Annexin-V/PI-staining based flow cytometry (reference value: 2.53 +/- 0.34%); format: functional
H22 [24] = assay: Antiproliferative activity against mouse H22 cells assessed as inhibition of cell growth measured after 72 hrs by MTT assay; format: functional, cell-based; conditions: H22, 72 h
[25] = Metabolic stability in mouse assessed as intrinsic clearance; format: ADME; conditions: 1 h, 1 µM, time < 60 min
PC-3 [26] = assay: Induction of apoptosis in human PC-3 cells assessed as mitochondrial membrane potential loss by measuring decrease in […] fluorescence at 7.5 nM incubated for 48 hrs by JC1 staining based flow cytometry analysis (reference value: 93.48 +/- 0.15%); format: functional; parameters: scale not given: the % may be the effect or the level left
HepG2 [27] = assay: Induction of apoptosis in human HepG2 cells assessed as late apoptotic cells at 15 nM incubated for 48 hrs by Annexin-V/PI-staining based flow cytometry (reference value: 2.53 +/- 0.34%); format: functional

COc1ccc(CNC(=O)c2cc(F)ccc2N2CCOCC2)cc1/C=C/C(=O)NO
Activity (HepG2 [1]): Active | Activity (HUVEC): Dde | Activity (HepG2 [2]): Active | Activity (HepG2 [3]): 54.77% | Stability [4]: 59% | inhibition (Histone deacetylase 3): Active | Activity (H22 [5]): Active | IC50 (HCT-116): 28 nM | Activity (HepG2 [6]): 33.09% | viability at 0.03 µM (HepG2 [7]): 46.6% | Stability [8]: 30.7% | inhibition (Histone deacetylase 2 [9]): Active | Activity (HepG2 [10]): Active | Activity (PC-3 [11]): 23.22% | inhibition (Tubulin (Homo sapiens)): 63.4% | Activity (H22 [12]): Active | Activity (HepG2 [13]): 43.33% | Activity [14]: Non-Toxic | Activity (HepG2 [15]): 1.33% | Activity (HepG2 [16]): Dde | Activity (HepG2 [17]): 23.58% | Activity [18]: Non-Toxic | Activity (HepG2 [19]): 34.86% | IC50 at 24 h [20]: 271 nM | inhibition (Histone deacetylase 1): Active | IC50 (MDA-MB-231): 30 nM | IC50 (Histone deacetylase 2 [21]): 135 nM | Activity (HepG2 [22]): Dde | Activity (HepG2 [23]): 15.68% | IC50 (H22 [24]): 26 nM | CL [25]: 2.82 mL/min | Activity (PC-3 [26]): 76.73% | Activity (HepG2 [27]): 6.36%
